# Laboratory results taken from ChEMBL document CHEMBL1201862, “PubChem BioAssay data set” (2004).
#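 How tested: cells in 96-well plates exposed to compound for 48 hours at five concentrations. GI50 is the concentration that inhibits growth by half.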 The source made the active and inactive calls. No stated cut-off is given here; in the data, active = GI50 up to about 1.1 µM and inactive = higher.
# Tests used:
# Assay in all cases: NCI tumour cell line growth inhibition, 48 h
# HT-29 = test system: HT-29
# SN12C = test system: SN12C
# NCI-H460 = test system: NCI-H460
# KM-20L2 = test system: KM-20L2
# TK-10 = test system: TK-10
# DMS-114 = test system: DMS-114
# OVCAR-8 = test system: OVCAR-8
# NCI-H522 = test system: NCI-H522
# UO-31 = test system: UO-31
# K562 = test system: K562
# SK-MEL-2 = test system: SK-MEL-2
# NCI-H226 = test system: NCI-H226
# HL-60 = test system: HL-60
# 786-0 = test system: 786-0
# SK-MEL-5 = test system: SK-MEL-5
# CCRF-CEM = test system: CCRF-CEM
# RPMI-8226 = test system: RPMI-8226
# MOLT-4 = test system: MOLT-4
# SF-539 = test system: SF-539
# OVCAR-3 = test system: OVCAR-3
# LOX IMVI = test system: LOX IMVI
# UACC-257 = test system: UACC-257
# SK-MEL-28 = test system: SK-MEL-28
# COLO 205 = test system: COLO 205
# CAKI-1 = test system: CAKI-1
# SF-295 = test system: SF-295
# KM12 = test system: KM12
# M19-MEL = test system: M19-MEL
# OVCAR-5 = test system: OVCAR-5
# Malme-3M = test system: Malme-3M
# SK-OV-3 = test system: SK-OV-3
# HCT-15 = test system: HCT-15
# SW-620 = test system: SW-620
# DMS-273 = test system: DMS-273
# EKVX = test system: EKVX
# DLD-1 = test system: DLD-1
# OVCAR-4 = test system: OVCAR-4
# SNB-78 = test system: SNB-78
# SF-268 = test system: SF-268
# UACC-62 = test system: UACC-62
# HOP-92 = test system: HOP-92
# A498 = test system: A498
# IGROV-1 = test system: IGROV-1
# XF498 = test system: XF498
# SNB-19 = test system: SNB-19
# NCI-H23 = test system: NCI-H23
# M14 = test system: M14
# RXF 393 = test system: RXF 393
# HCC 2998 = test system: HCC 2998
# SNB-75 = test system: SNB-75
# ACHN = test system: ACHN
# A549 = test system: A549
# LXFL 529 = test system: LXFL 529
# SR = test system: SR
# HCT-116 = test system: HCT-116
# U-251 = test system: U-251
# HOP-62 = test system: HOP-62
smiles,measurement,setting,value
O=C1NC(=O)C2C(=O)NC(=O)C1C2Cc1ccco1 (stereo not drawn),GI50,HT-29,> 100 µM (inactive)
same,GI50,SN12C,> 100 µM (inactive)
same,GI50,NCI-H460,> 100 µM (inactive)
same,GI50,KM-20L2,> 100 µM (inactive)
same,GI50,TK-10,> 100 µM (inactive)
same,GI50,DMS-114,> 100 µM (inactive)
same,GI50,OVCAR-8,> 100 µM (inactive)
same,GI50,NCI-H522,> 100 µM (inactive)
same,GI50,UO-31,> 100 µM (inactive)
same,GI50,K562,> 100 µM (inactive)
same,GI50,SK-MEL-2,> 100 µM (inactive)
same,GI50,NCI-H226,> 100 µM (inactive)
same,GI50,HL-60,> 100 µM (inactive)
same,GI50,786-0,> 100 µM (inactive)
same,GI50,SK-MEL-5,> 100 µM (inactive)
same,GI50,CCRF-CEM,> 100 µM (inactive)
same,GI50,RPMI-8226,> 100 µM (inactive)
same,GI50,MOLT-4,> 100 µM (inactive)
same,GI50,SF-539,> 100 µM (inactive)
same,GI50,OVCAR-3,> 100 µM (inactive)
same,GI50,LOX IMVI,> 100 µM (inactive)
same,GI50,UACC-257,> 100 µM (inactive)
same,GI50,SK-MEL-28,> 100 µM (inactive)
same,GI50,COLO 205,> 100 µM (inactive)
same,GI50,CAKI-1,> 100 µM (inactive)
same,GI50,SF-295,> 100 µM (inactive)
same,GI50,KM12,> 100 µM (inactive)
same,GI50,M19-MEL,> 100 µM (inactive)
same,GI50,OVCAR-5,> 100 µM (inactive)
same,GI50,Malme-3M,> 100 µM (inactive)
same,GI50,SK-OV-3,> 100 µM (inactive)
same,GI50,HCT-15,> 100 µM
same,GI50,SW-620,> 100 µM (inactive)
same,GI50,DMS-273,> 100 µM (inactive)
same,GI50,EKVX,> 100 µM (inactive)
same,GI50,DLD-1,> 100 µM (inactive)
same,GI50,OVCAR-4,> 100 µM (inactive)
same,GI50,SNB-78,> 100 µM (inactive)
same,GI50,SF-268,> 100 µM (inactive)
same,GI50,UACC-62,> 100 µM (inactive)
same,GI50,HOP-92,> 100 µM (inactive)
same,GI50,A498,> 100 µM (inactive)
same,GI50,IGROV-1,> 100 µM (inactive)
same,GI50,XF498,> 100 µM (inactive)
same,GI50,SNB-19,> 100 µM (inactive)
same,GI50,NCI-H23,> 100 µM (inactive)
same,GI50,M14,> 100 µM (inactive)
same,GI50,RXF 393,> 100 µM (inactive)
same,GI50,HCC 2998,> 100 µM (inactive)
same,GI50,SNB-75,> 100 µM (inactive)
same,GI50,ACHN,> 100 µM (inactive)
same,GI50,A549,> 100 µM (inactive)
CN(CCN(C)C(=O)CCn1ccc(=O)[nH]c1=O)C(=O)CCn1ccc(=O)[nH]c1=O,GI50,HT-29,> 100 µM (inactive)
same,GI50,LXFL 529,> 100 µM (inactive)
same,GI50,SN12C,> 100 µM (inactive)
same,GI50,SR,> 100 µM (inactive)
same,GI50,NCI-H460,> 100 µM (inactive)
same,GI50,HCT-116,> 100 µM (inactive)
same,GI50,KM-20L2,> 100 µM (inactive)
same,GI50,TK-10,> 100 µM (inactive)
same,GI50,DMS-114,> 100 µM (inactive)
same,GI50,OVCAR-8,> 100 µM (inactive)
same,GI50,NCI-H522,> 100 µM (inactive)
same,GI50,UO-31,> 100 µM (inactive)
same,GI50,K562,> 100 µM (inactive)
same,GI50,SK-MEL-2,> 100 µM (inactive)
same,GI50,NCI-H226,> 100 µM (inactive)
same,GI50,HL-60,> 100 µM (inactive)
same,GI50,U-251,> 100 µM (inactive)
same,GI50,786-0,> 100 µM (inactive)
same,GI50,SK-MEL-5,> 100 µM (inactive)
same,GI50,CCRF-CEM,> 100 µM (inactive)
same,GI50,RPMI-8226,> 100 µM (inactive)
same,GI50,MOLT-4,> 100 µM (inactive)
same,GI50,SF-539,> 100 µM (inactive)
same,GI50,OVCAR-3,> 100 µM (inactive)
same,GI50,LOX IMVI,> 100 µM (inactive)
same,GI50,SK-MEL-28,> 100 µM (inactive)
same,GI50,COLO 205,> 100 µM (inactive)
same,GI50,SF-295,> 100 µM (inactive)
same,GI50,KM12,> 100 µM (inactive)
same,GI50,M19-MEL,> 100 µM (inactive)
same,GI50,OVCAR-5,> 100 µM (inactive)
same,GI50,Malme-3M,> 100 µM (inactive)
same,GI50,HOP-62,> 100 µM (inactive)
same,GI50,HCT-15,> 100 µM
same,GI50,SW-620,> 100 µM (inactive)
same,GI50,DMS-273,> 100 µM (inactive)
same,GI50,EKVX,> 100 µM (inactive)
same,GI50,OVCAR-4,> 100 µM (inactive)
same,GI50,SNB-78,> 100 µM (inactive)
same,GI50,SF-268,> 100 µM (inactive)
same,GI50,UACC-62,> 100 µM (inactive)
same,GI50,IGROV-1,> 100 µM (inactive)
same,GI50,XF498,> 100 µM (inactive)
same,GI50,SNB-19,> 100 µM (inactive)
same,GI50,NCI-H23,> 100 µM (inactive)
same,GI50,M14,> 100 µM (inactive)
same,GI50,RXF 393,> 100 µM (inactive)
same,GI50,HCC 2998,> 100 µM (inactive)
same,GI50,SNB-75,22.4 µM (inactive)
same,GI50,ACHN,> 100 µM (inactive)
same,GI50,A549,> 100 µM (inactive)
